Holding throughout (type): cell-based
The subject of one experiment is NCI-H2052. Description: Mesothelioma cell line proliferation assay (ATPlite), NCI-H2052. Conditions: Homo sapiens, 144 h; NCI-H2052 cells, 6 days with compound, cell viability by ATPlite. Here is the method:
(§1) Mesothelioma cell lines, NCI-H226 and NCI-H2052 (all sourced from the ATCC cell culture collection) are plated in 96-well plates (Corning® 96 Well White Polystyrene Microplate clear flat bottom, white polystyrene (TC-Treated)), at 1500 cells/well in full medium (RPMI 1640 ATCC modification with L-glutamine, HEPES, Phenol Red, Sodium Pyruvate, High glucose, Low sodium bicarbonate and 10% fetal bovine serum). Cells are incubated overnight at 37° C. in an incubator with 5% CO2. Then compounds, dissolved in DMSO, are added in dose-response. Cells are incubated with compound dilutions for another 6 days at 37° C. in an incubator with 5% CO2. Cell viability is quantitated using the ATPlite kit (Perkin-Elmer) and the luminescence is read-out using an Envision instrument (Perkin-Elmer). The amount of relative light units produced using the ATPlite kit is used to calculated percent of inhibition.
(§2) The activities of some example compounds are depicted in Table 7. The activity ranges A, B and C refer to EC50 values in the mesothelioma cell line proliferation assay as described as follows: “A”: EC50<1 μM; “B”: 1 μM≤EC50≤10 μM and “C”: EC50>10 μM; NT: not tested.

Experiment [1] has as its system YAP/TAZ-TEAD transcription. Nature of the experiment: Reporter gene assay for measuring the inhibition of YAP/TAZ-TEAD transcription (TEAD-responsive element luciferase reporter in Hek293T cells). The settings on record: Homo sapiens, HEK-293T; Hek293T cells transfected with TEAD-responsive luciferase reporter, 24 hours incubation. Here is the method: Hek293T cells are cultured in DMEM supplemented with 10% fetal bovine serum, Sodium pyruvate, Sodium bicarbonate, L-glutamine. The cells are harvested and transiently transfected with TEAD-responsive element luciferase reporter. Transfected cells are plated in 384-wells plate containing pre-diluted compounds. After 24 hours incubation at 37° C./5% CO2, assay plates were cooled down to RT and levelled to an equal volume per well, prior to the addition of 25 uL luciferase substrate SteadyLite (Perkin Elmer)/well. The plate was shaken for 10 min at 600 rpm, centrifuged for 1 min at 500 rpm and measured with an Envision reader (PerkinElmer). The amount of relative light units produced by the TEAD reporter is used to calculated percent of inhibition.
The percent of reporter inhibition was calculated in the presence of a positive control inhibitor (100% inhibition) versus a condition with the presence of the vehicle basal activity of the reporter (0% inhibition). The ability of a test compound to inhibit this activity was determined as:
Percentage inhibition=[1−((RLU determined in the presence of vehicle−RLU determined for sample with test compound present) divided by (RLU determined in the presence of vehicle−RLU determined for sample with positive control inhibitor))]*100
The activities of example compounds tested are depicted in Table 6. The activity ranges A, B and C refer to IC50 values in the reporter gene assay as follows: “A”: IC50<1 μM; “B”: 1 μM≤IC50≤20 μM and “C”: IC50>20 μM; NT=not tested.
On the technique in general: Reporter assays use an easily measured gene product as a stand-in for the process of interest.

The test system of the next experiment is NCI-H226. Description: Mesothelioma cell line proliferation assay (ATPlite), NCI-H226. The settings on record: Homo sapiens, 144 h; NCI-H226 cells, 6 days with compound, cell viability by ATPlite. Here is the method: as §1, §2
(In general: In ATP-based viability assays light output follows the ATP content of the culture.)

The term EC50 denotes the midpoint of the concentration-response curve. `C=CC(=O)NCc1nn(-c2ccc(C(F)(F)F)cc2)c2ccc(OCC3CCOC3)cc12` (racemic) [compound 46, N-[[5-[[rac-tetrahydrofuran-3-yl]methoxy]-1-[4-(trifluoromethyl)phenyl]indazol-3-yl]methyl]prop-2-enamide]: the concentration giving a half-maximal response (EC50) (with NCI-H2052; in experiment [1]; in the experiment on NCI-H226) was under 1 µM in each case.

With `C=CC(=O)NCc1nn(-c2ccc(C(F)(F)F)cc2)c2ccc(OC[C@H]3CCOC3)cc12` (single isomer, unassigned) [compound 47], the half-maximal effective concentration (EC50) (with NCI-H2052; in experiment [1]; with NCI-H226) was under 1 µM each time.

As for `C=CC(=O)NCc1nn(-c2ccc(C(F)(F)F)cc2)c2ccc(OC[C@@H]3CCOC3)cc12` (single isomer, unassigned) [compound 48], the half-maximal effective concentration (EC50) (in the experiment with NCI-H2052; in experiment [1]; in the experiment with NCI-H226) was under 1 µM throughout.

For `C=CC(=O)NCc1nn(-c2ccc(OC(F)(F)F)cc2)c2ccccc12` [Cpd. No. 4, N-((1-(4-(trifluoromethoxy)phenyl)-1H-indazol-3-yl)methyl)acrylamide], the EC50 (in the experiment with NCI-H2052; in experiment [1]; in the experiment with NCI-H226) was under 1 µM throughout.

Take `C=CC(=O)NCc1nn(-c2ccc(C(F)(F)F)cc2)c2ccc(OCC#N)cc12` [Cpd. No. 43, N-[[5-(cyanomethoxy)-1-[4-(trifluoromethyl)phenyl]indazol-3-yl]methyl]prop-2-enamide]: the EC50 (in the experiment on NCI-H2052; in experiment [1]; in the experiment on NCI-H226) was under 1 µM throughout.

As to `C=CC(=O)NCc1nn(-c2ccc(C(F)(F)F)cc2)c2ccccc12` [compound 1, N-((1-(4-(trifluoromethyl)phenyl)-1H-indazol-3-yl)methyl)acrylamide], the EC50 (in the experiment on NCI-H2052; in experiment [1]; in the experiment on NCI-H226) was under 1 µM each time.

Regarding `CS(=O)(=O)NCc1nn(-c2ccc(C(F)(F)F)cc2)c2ccccc12` [compound 3, N-((1-(4-(trifluoromethyl)phenyl)-1H-indazol-3-yl)methyl)methanesulfonamide], the EC50 with NCI-H2052 was over 10 µM; in experiment [1], under 1 µM; with NCI-H226, over 10 µM.

As for `C=CC(=O)NCc1nn(-c2ccc(C(F)(F)F)cc2)c2ncccc12` [compound 19, N-((1-(4-(trifluoromethyl)phenyl)-1H-pyrazolo[3,4-b]pyridin-3-yl)methyl)acrylamide], the EC50 (with NCI-H2052; in experiment [1]; in the experiment with NCI-H226) was under 1 µM in each case.

In the case of `C=CC(=O)Nc1cn(-c2ccc(C(F)(F)F)cc2)c2ccccc12` [compound 20, N-(1-(4-(trifluoromethyl)phenyl)-1H-indol-3-yl)acrylamide], the results for the half-maximal effective concentration (EC50) (in the experiment on NCI-H2052; in experiment [1]; in the experiment on NCI-H226) were under 1 µM, under 1 µM and 1 to 10 µM, respectively.

As for `CC(=O)Nc1cn(-c2ccc(C(F)(F)F)cc2)c2ccccc12` [compound 21, N-(1-(4-(trifluoromethyl)phenyl)-1H-indol-3-yl)acetamide], the values for the concentration for a half-maximal effect (EC50) (in the experiment with NCI-H2052; in experiment [1]; in the experiment on NCI-H226) were 1 to 10 µM, under 1 µM and under 1 µM, respectively.

For the molecule `C=CC(=O)NCc1cn(-c2ccc(C(F)(F)F)cc2)c2ccccc12` [compound 27, N-((1-(4-(trifluoromethyl)phenyl)-1H-indol-3-yl)methyl)acrylamide], the EC50 with NCI-H2052 was 1 to 10 µM; in experiment [1], under 1 µM; in the experiment on NCI-H226, over 10 µM.

Take `C=CC(=O)NCc1cc2ccccc2n1-c1ccc(C(F)(F)F)cc1` [compound 29, N-((1-(4-(trifluoromethyl)phenyl)-1H-indol-2-yl)methyl)acrylamide]: the EC50 (in the experiment with NCI-H2052; in experiment [1]; with NCI-H226) was under 1 µM in each case.

`CCC(=O)NCc1nn(-c2ccc(C(F)(F)F)cc2)c2ccc(OCc3ccccc3)cc12` [compound 55, N-[[5-benzyloxy-1-[4-(trifluoromethyl)phenyl]indazol-3-yl]methyl]propanamide] showed an EC50 in experiment [1] of over 20 µM.

In experiment [1], `CS(=O)(=O)NCc1nn(-c2ccc(C(F)(F)F)cc2)c2ccc(OCc3ccccc3)cc12` [compound 56, N-[[5-benzyloxy-1-[4-(trifluoromethyl)phenyl]indazol-3-yl]methyl]methanesulfonamide] gave an EC50 of 1 to 20 µM.

In experiment [1], `N#CCS(=O)(=O)NCc1nn(-c2ccc(C(F)(F)F)cc2)c2ccccc12` [compound 57, 1-cyano-N-[[1-[4-(trifluoromethyl)phenyl]indazol-3-yl]methyl]methanesulfonamide] showed a 50% effective concentration (EC50) of 1 to 20 µM.

Molecule `Cn1c(Oc2ccc3c(c2)c(CNS(C)(=O)=O)nn3-c2ccc(C(F)(F)F)cc2)cc(=O)[nH]c1=O` [compound 60, N-[[5-(3-methyl-2,6-dioxo-pyrimidin-4-yl)oxy-1-[4-(trifluoromethyl)phenyl]indazol-3-yl]methyl]methanesulfonamide] came in with an EC50 in experiment [1] of over 20 µM.

In experiment [1], `CS(=O)(=O)NCc1nn(-c2ccc(C(F)(F)F)cc2)c2cc(OC3CC3)ccc12` [compound 61, N-[[6-(cyclopropoxy)-1-[4-(trifluoromethyl)phenyl]indazol-3-yl]methyl]methanesulfonamide] had an EC50 of 1 to 20 µM.

In turn, `CCC(=O)NCc1nn(-c2ccc(C(F)(F)F)cc2)c2cc(OC3CC3)ccc12` [compound 62, N-[[6-(cyclopropoxy)-1-[4-(trifluoromethyl)phenyl]indazol-3-yl]methyl]propanamide] displayed an EC50 in experiment [1] of over 20 µM.

In turn, `C#CCOc1ccc2c(c1)c(CNC(=O)CC)nn2-c1ccc(C(F)(F)F)cc1` [compound 64, N-[[5-prop-2-ynoxy-1-[4-(trifluoromethyl)phenyl]indazol-3-yl]methyl]propanamide] yielded an EC50 in experiment [1] of over 20 µM.

With `C#CCOc1ccc2c(c1)c(CNS(C)(=O)=O)nn2-c1ccc(C(F)(F)F)cc1` [compound 65, N-[[5-prop-2-ynoxy-1-[4-(trifluoromethyl)phenyl]indazol-3-yl]methyl]methanesulfonamide], in experiment [1], the EC50 is over 20 µM.

With `CCC(=O)NCc1nn(-c2ccc(C(F)(F)F)cc2)c2ccc(OCC3CC3)cc12` [compound 67, N-[[5-(cyclopropylmethoxy)-1-[4-(trifluoromethyl)phenyl]indazol-3-yl]methyl]propanamide], the EC50 in experiment [1] is over 20 µM.

For `CS(=O)(=O)NCc1nn(-c2ccc(C(F)(F)F)cc2)c2ccc(OCC3CC3)cc12` [compound 68, N-[[5-(cyclopropylmethoxy)-1-[4-(trifluoromethyl)phenyl]indazol-3-yl]methyl]methanesulfonamide], the half-maximal effective concentration (EC50) in experiment [1] is under 1 µM.

`O=C(O)COc1cccc2c1cnn2-c1ccc(C(F)(F)F)cc1` [compound 69, 2-[1-[4-(trifluoromethyl)phenyl]indazol-4-yl]oxyacetic acid] had a 50% effective concentration (EC50) in experiment [1] of over 20 µM.

The molecule `C=C(CNc1nn(-c2ccc(C(F)(F)F)cc2)c2ccccc12)C(=O)O` [compound 70, 2-[[[1-[4-(trifluoromethyl)phenyl]indazol-3-yl]amino]methyl]prop-2-enoic acid] had an EC50 in experiment [1] of under 1 µM.

As for `CC(=O)NCc1nn(-c2ccc(C(F)(F)F)cc2)c2ccc(C(F)(F)F)cc12` [compound 72, N-[[5-(trifluoromethyl)-1-[4-(trifluoromethyl)phenyl]indazol-3-yl]methyl]acetamide], the 50% effective concentration (EC50) in experiment [1] lay in the range of 1 to 20 µM.

In the case of `CS(=O)(=O)NCc1nn(-c2ccc(C(F)(F)F)cc2)c2ccc(C(F)(F)F)cc12` [compound 73, N-[[5-(trifluoromethyl)-1-[4-(trifluoromethyl)phenyl]indazol-3-yl]methyl]methanesulfonamide], the EC50 in experiment [1] was in the range of 1 to 20 µM.

With `CC(=O)NCc1nn(-c2ccc(C(F)(F)F)cc2)c2cc(C(F)(F)F)ccc12` [compound 75, N-[[6-(trifluoromethyl)-1-[4-(trifluoromethyl)phenyl]indazol-3-yl]methyl]acetamide], the EC50 in experiment [1] was over 20 µM.

As for `CS(=O)(=O)NCc1nn(-c2ccc(C(F)(F)F)cc2)c2cc(C(F)(F)F)ccc12` [compound 76, N-[[6-(trifluoromethyl)-1-[4-(trifluoromethyl)phenyl]indazol-3-yl]methyl]methanesulfonamide], the EC50 in experiment [1] was in the range of 1 to 20 µM.
